According to publication PMC5087659, “The role of ADP-ribosylation in regulating DNA interstrand crosslink repair” (Journal of Cell Science, 2016):

Target: T1, O. sativa APL (Q10MW4) macrodomain (Oryza sativa, UniProt B8ALM5)
T1 construct: gene OsI_11122
Experiment: X-ray crystal structure of the complex (co-crystallisation)
Conditions: 2 mM ADPr added to protein; crystals in 0.1 M SPG buffer pH 4, 25% PEG 1500, 20 °C; macrodomain binding pocket

T1 sequence (B8ALM5 entry or part of it, one chain of several): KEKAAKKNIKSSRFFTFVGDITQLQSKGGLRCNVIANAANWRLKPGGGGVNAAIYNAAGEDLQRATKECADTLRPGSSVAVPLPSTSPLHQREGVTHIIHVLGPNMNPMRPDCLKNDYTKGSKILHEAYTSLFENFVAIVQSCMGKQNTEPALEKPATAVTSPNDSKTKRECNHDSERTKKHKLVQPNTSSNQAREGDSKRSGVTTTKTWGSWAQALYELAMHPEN

## Nc1ncnc2c1ncn2[C@@H]1O[C@H](COP(=O)(O)OP(=O)(O)OC[C@H]2OC(O)[C@H](O)[C@@H]2O)[C@@H](O)[C@H]1O (stereo partly shown) [ADP-ribose]
  X-ray crystal structure of the complex (co-crystallisation): We were able to obtain the O. sativa macrodomain in a complex with ADP-ribose
